ChEMBL document CHEMBL2440085, “Identification of novel PARP-1 inhibitors by structure-based virtual screening” (Bioorg Med Chem Lett, 2013)
pIC50: −log10 of the molar value. The source made the active and inactive calls. The rule behind the calls is not given here.

What was measured:
[1] = molecular target: T1, Poly [ADP-ribose] polymerase 1 (Homo sapiens, UniProt P09874); test: Inhibition of PARP-1 (unknown origin) at 1 uM after 60 mins by colorimetric assay relative to control
[2] = molecular target: T1, Poly [ADP-ribose] polymerase 1; test: Inhibition of PARP-1 (unknown origin) after 60 mins by colorimetric assay
[3] = molecular target: T1, Poly [ADP-ribose] polymerase 1; test: Inhibition of PARP-1 (unknown origin) at 10 uM after 60 mins by colorimetric assay relative to control

T1 sequence (P09874 whole entry): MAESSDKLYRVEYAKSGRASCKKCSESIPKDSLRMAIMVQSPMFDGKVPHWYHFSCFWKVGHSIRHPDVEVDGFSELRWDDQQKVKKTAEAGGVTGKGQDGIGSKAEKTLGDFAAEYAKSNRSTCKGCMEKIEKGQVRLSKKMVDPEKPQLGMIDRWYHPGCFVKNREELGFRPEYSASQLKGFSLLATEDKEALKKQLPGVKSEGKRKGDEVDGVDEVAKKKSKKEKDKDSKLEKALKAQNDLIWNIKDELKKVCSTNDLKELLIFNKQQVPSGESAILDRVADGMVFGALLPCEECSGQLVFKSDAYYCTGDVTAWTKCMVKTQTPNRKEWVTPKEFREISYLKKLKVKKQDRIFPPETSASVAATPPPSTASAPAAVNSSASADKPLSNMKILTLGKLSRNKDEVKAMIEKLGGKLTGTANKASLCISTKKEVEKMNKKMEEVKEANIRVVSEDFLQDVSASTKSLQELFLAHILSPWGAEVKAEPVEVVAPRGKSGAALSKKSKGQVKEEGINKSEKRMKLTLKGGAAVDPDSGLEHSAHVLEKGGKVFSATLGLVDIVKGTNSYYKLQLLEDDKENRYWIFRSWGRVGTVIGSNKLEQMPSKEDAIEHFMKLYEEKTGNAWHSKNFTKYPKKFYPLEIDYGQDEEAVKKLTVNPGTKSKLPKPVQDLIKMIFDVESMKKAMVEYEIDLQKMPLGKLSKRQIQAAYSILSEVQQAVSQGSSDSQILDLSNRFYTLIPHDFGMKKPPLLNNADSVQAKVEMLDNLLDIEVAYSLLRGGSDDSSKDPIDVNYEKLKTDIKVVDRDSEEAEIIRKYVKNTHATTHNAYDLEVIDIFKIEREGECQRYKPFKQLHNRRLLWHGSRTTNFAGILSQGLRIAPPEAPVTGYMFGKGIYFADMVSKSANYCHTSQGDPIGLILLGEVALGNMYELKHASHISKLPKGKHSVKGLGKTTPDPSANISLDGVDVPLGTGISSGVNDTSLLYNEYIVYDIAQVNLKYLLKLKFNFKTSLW

Compound	inhibition [1]	pIC50 [2]	inhibition [3] [%]
Cc1cc(OCC(=O)Nc2ccc3c(c2)NC(=O)C(C)O3)ccc1Cl (stereo not given)	inactive	–	–
N#Cc1c(-c2ccccc2)cn2c1[nH]c(=O)c1ccccc12	40%	5.02	–
Cc1ccc(C(=O)C2=C3NC(=O)c4ccccc4N3Cc3ccccc32)cc1	inactive	–	–
O=C1Nc2ccc(S(=O)(=O)Nc3ccc(Cl)cn3)c3cccc1c23	inactive	–	–
O=C(c1ccc(F)cc1)c1c2nc[nH]c(=O)c2c2ccccn12	inactive	–	–
O=C1N[C@H]2Cc3ccccc3CN2c2ccccc21	40%	5.72	–
CCCn1c2c(c(=S)[nH]c1=O)CCC2	inactive	–	–
O=C(O)CN1C(=O)c2ccc3c4c(ccc(c24)C1=O)C(=O)N3	inactive	–	–
O=C(CSc1nc2sc3c(c2c(=O)[nH]1)CCC3)N(CCO)CCO	40%	5.67	–
Cc1ccc(C(=O)CSc2nc3c(c(=O)[nH]2)CCC3)cc1	inactive	–	–
CC1Oc2ccc(NC(=O)COc3ccc(F)cc3)cc2NC1=O (stereo not given)	inactive	–	–
O=C1N[C@@H]2N(Cc3ccccc3C23CCOCC3)c2ccccc21	40%	5.71	–
CCN(CC)c1ccc(/C=N\Nc2nnc(C)c(=O)[nH]2)cc1	inactive	–	–
O=c1[nH]cnc2sccc12	–	–	< 20
O=c1[nH]c(NCc2ccncc2)nc2c1CCC2	inactive	–	–
O=C1Nc2ccc(S(=O)(=O)NCc3ccccn3)c3cccc1c23	inactive	–	–
O=c1[nH]n(-c2ccc([N+](=O)[O-])cc2)c(=O)c2ccccc12	inactive	–	–
Cc1ccc2cc(CCN)c(=O)[nH]c2c1C	inactive	–	–

Results, then the molecule that gave them:

inhibition [1]	pIC50 [2]	inhibition [3] [%]	Compound
inactive	–	–	Cc1cccc(N2CCN(c3nnc(C)c(=O)[nH]3)CC2)c1C
–	–	46	Oc1ncnc2ccsc12
inactive	–	–	O=C(c1ccccc1)c1c2nc[nH]c(=O)c2c2ccccn12
–	4.85	–	O=c1[nH]cnc2ccsc12
inactive	–	–	O=C1Nc2ccc(S(=O)(=O)NCc3cccnc3)c3cccc1c23
40%	6.14	–	Cc1sc2nc(SCC(=O)N3CCN(CCO)CC3)[nH]c(=O)c2c1C
inactive	–	–	O=C(CS(=O)(=O)CC(=O)c1ccc2c(c1)NC(=O)CO2)Nc1ccccc1
inactive	–	–	Oc1nc2ccccc2n2nnnc12
inactive	–	–	O=C1NC(=O)c2cc(NS(=O)(=O)c3cccc4cccnc34)ccc21
inactive	–	–	CC1Oc2ccc(NC(=O)CNC(=O)c3ccccc3)cc2NC1=O (stereo not given)
inactive	–	–	CC(C)(C)c1nn2c(SCC(=O)c3ccc(Cl)c(Cl)c3)nnc2[nH]c1=O
inactive	–	–	Cc1nn2nnnc2[nH]c1=O
